# Data: ChEMBL document CHEMBL1201862, “PubChem BioAssay data set” (2004)
# Activity calls are given as the source filed them.
# How the values were obtained:
# [1] = molecular target: Dual specificity protein phosphatase 3 (Homo sapiens, UniProt P51452); assay: VHR phosphatase inhibition, dose response, selectivity assay for STEP inhibitor project, biochemical (AID 602374); type: functional; details: read-out: IC50_Mean
# [2] = molecular target: T1, Tyrosine-protein phosphatase non-receptor type 11 (Homo sapiens, UniProt Q06124); assay: PTPN11 enzyme inhibitors – biochemical, selectivity assay for STEP inhibitor project, dose response (AID 602367); type: functional; details: read-out: IC50_Mean
# T1 sequence (Q06124 whole entry): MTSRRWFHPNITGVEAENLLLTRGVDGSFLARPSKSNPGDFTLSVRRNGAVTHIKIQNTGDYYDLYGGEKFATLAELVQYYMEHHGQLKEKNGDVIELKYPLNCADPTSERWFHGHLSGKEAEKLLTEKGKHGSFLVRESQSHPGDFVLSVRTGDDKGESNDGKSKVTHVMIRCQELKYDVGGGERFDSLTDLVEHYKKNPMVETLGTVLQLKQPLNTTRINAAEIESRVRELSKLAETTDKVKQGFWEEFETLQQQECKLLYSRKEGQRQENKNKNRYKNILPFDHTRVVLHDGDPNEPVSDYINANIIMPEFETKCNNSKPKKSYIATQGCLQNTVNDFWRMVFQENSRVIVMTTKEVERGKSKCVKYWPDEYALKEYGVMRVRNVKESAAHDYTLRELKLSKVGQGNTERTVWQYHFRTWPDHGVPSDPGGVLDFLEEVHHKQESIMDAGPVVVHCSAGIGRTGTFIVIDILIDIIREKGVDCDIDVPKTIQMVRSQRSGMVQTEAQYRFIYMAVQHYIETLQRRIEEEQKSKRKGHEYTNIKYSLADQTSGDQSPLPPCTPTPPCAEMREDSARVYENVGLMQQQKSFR
# [3] = molecular target: T2, Tyrosine-protein phosphatase non-receptor type 5 (Homo sapiens, UniProt P54829); assay: PTPN5 enzyme inhibition – biochemical, fluorescence intensity, uHTS hits, confirmation (AID 602372); type: functional; details: read-out: IC50_Mean
# T2 sequence (P54829 whole entry): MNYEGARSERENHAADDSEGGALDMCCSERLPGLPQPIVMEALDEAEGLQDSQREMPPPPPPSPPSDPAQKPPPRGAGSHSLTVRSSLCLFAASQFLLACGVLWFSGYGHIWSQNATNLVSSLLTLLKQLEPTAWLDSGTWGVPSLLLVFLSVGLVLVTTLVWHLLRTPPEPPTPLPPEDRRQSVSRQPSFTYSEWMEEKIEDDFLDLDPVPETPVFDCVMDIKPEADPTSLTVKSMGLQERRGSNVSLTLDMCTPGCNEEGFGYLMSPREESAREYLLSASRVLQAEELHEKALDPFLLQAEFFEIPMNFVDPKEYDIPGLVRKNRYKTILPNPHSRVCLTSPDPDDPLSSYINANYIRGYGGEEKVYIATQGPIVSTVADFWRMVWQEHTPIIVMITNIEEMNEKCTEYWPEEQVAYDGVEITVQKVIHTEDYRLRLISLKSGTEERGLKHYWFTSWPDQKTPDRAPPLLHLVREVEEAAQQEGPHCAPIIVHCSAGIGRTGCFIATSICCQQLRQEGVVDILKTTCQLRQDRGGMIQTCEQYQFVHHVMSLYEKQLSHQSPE
# Interleukin-8 = molecular target: T3, Interleukin-8 (Homo sapiens, UniProt P10145); assay: Dose Response confirmation of uHTS small molecule hits for cystic fibrosis induced NFkb Inhibitors in a PAF-induced IL8 counterscreen.; type: functional; details: read-out: IC50_Mean
# T3 sequence (P10145 whole entry): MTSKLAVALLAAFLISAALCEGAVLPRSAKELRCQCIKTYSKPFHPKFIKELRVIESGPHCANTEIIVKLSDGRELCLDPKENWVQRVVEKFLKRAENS
# Streptococcus = assay: GAS UMAA2166 growth inhibition – luminescence, BacTiterGlo, counter-screen for streptokinase expression inhibitor project, dose response (AID 1915); type: functional, organism-based;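 also: potency for reduction of bacterial viability or growth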
# [4] = system: Streptococcus sp. 'group A'; assay: Streptococcus pyogenes SK(-)GAS viability under kanamycin – luminescence, BacTiterGlo, confirmation, counter-screen for streptokinase expression inhibitor project, dose response (AID 1900); type: functional, organism-based
# [5] = molecular target: T4, Low molecular weight phosphotyrosine protein phosphatase (Homo sapiens, UniProt P24666); type: functional; details: read-out: IC50_Mean;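 also: Dose-response confirmation assay measuring inhibition of LMPTP enzyme activity by fluorescence intensity read-out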
# T4 sequence (P24666 whole entry): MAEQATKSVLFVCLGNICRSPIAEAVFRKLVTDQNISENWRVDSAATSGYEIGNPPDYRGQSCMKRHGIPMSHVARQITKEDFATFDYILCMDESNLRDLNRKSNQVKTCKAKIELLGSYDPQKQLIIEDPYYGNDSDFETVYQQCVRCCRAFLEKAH
# Orexin receptor type 2 [6] = molecular target: T5, Orexin receptor type 2 (Homo sapiens, UniProt O43614); assay: Counterscreen assay for antagonists of the orexin 1 receptor (OX1R; HCRTR1): Homogeneous Time Resolved Fluorescence (HTRF)-based cell-based dose response assay for antagonists of the orexin 2 receptor (OX2R; HCRTR2), run by assay provider.; type: functional
# T5 sequence (O43614 whole entry): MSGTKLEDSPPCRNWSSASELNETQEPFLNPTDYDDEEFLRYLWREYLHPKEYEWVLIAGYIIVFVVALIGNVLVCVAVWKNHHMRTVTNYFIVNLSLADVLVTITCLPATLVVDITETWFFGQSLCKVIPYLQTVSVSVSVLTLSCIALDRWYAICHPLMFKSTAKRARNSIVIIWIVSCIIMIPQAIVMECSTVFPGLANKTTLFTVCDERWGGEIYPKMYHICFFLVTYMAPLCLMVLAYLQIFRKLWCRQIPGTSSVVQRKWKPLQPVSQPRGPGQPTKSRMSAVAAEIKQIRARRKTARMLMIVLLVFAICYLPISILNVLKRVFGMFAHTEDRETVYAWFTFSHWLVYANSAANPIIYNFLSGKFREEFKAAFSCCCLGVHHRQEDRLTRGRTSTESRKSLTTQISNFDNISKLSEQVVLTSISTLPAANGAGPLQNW
# [7] = molecular target: T6, Orexin/Hypocretin receptor type 1 (Homo sapiens, UniProt O43613); assay: Homogeneous Time Resolved Fluorescence (HTRF)-based cell-based high throughput dose response assay for antagonists of the orexin 1 receptor (OX1R; HCRTR1). [Related pubchem assays (depositor defined):AID434989, AID435008, AID463079, AID485270, AID492963, AID492964, AID492965, AID493232, AID504717, AID504718]; type: functional
# T6 sequence (O43613 whole entry): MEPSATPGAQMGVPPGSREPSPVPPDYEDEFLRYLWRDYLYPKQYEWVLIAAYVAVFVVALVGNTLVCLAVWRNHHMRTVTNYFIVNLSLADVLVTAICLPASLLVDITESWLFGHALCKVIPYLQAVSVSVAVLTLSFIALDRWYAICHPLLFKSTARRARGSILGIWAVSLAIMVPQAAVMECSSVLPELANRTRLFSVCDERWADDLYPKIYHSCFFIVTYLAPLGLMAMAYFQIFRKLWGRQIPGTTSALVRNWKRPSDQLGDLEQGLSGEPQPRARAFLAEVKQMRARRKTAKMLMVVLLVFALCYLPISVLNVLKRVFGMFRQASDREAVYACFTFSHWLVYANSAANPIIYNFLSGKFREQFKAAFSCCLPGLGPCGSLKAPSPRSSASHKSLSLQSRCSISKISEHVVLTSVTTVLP
# CHO-K1 = assay: (§1) Counterscreen for antagonists of the orexin 1 receptor (OX1R; HCRTR1): Homogeneous time resolved fluorescence (HTRF)-based cell-based dose response assay to identify antagonists of the parental CHO-K1 cell line. [Related pubchem assays (depositor defined):AID434989, AID435008, AID463079, AID485270, AID492963, AID492964, AID492965, AID493232, AID504699, AID504701]; type: functional; details: Cricetulus griseus
# [8] = as §1, with “Fluorescence-based” for “Homogeneous time resolved fluorescence (HTRF)-based”, “cell-based high throughput” for “cell-based”, “CHO” for “CHO-K1”; type: functional
# Orexin receptor type 2 [9] = molecular target: T5, Orexin receptor type 2; assay: Counterscreen assay for antagonists of the orexin 1 receptor (OX1R; HCRTR1): Fluorescence-based cell-based dose response assay for antagonists of the orexin 2 receptor (OX2R; HCRTR2), run by assay provider.; type: functional
# [10] = molecular target: T6, Orexin/Hypocretin receptor type 1; assay: Fluorescence-based cell-based high throughput dose response assay for antagonists of the orexin 1 receptor (OX1R; HCRTR1). [Related pubchem assays (depositor defined):AID434989, AID435008, AID463079, AID485270, AID492963, AID492964, AID492965, AID493232, AID504717, AID504718]; type: functional
# [11] = bead-based luminescence quenchers, dual-tagged ARNT – biochemical, AlphaScreen, cherry-pick, artefact control for ARNT-TACC3 interaction inhibitor project, dose response (AID 651705); type: functional;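 also: AlphaScreen bead proximity signal that flags compounds interfering with the detection technology; potency reflects signal decrease which marks the compound as an assay artifact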
# [12] = A Cell Based Secondary Assay To Explore Cytotoxicity of Compounds that Sensitize Mycobacterium Tuberculosis to Beta-Lactam Antibiotics.; type: functional
# [13] = molecular target: T7, Adenosylmethionine-8-amino-7-oxononanoate aminotransferase (Mycobacterium tuberculosis, UniProt P9WQ81); assay: Mycobacterium tuberculosis BioA enzyme inhibitor Measured in Biochemical System Using Plate Reader - 2163-02_Inhibitor_Dose_CherryPick_Activity.; type: functional, Mycobacterium tuberculosis UT205
# T7 sequence (P9WQ81 whole entry): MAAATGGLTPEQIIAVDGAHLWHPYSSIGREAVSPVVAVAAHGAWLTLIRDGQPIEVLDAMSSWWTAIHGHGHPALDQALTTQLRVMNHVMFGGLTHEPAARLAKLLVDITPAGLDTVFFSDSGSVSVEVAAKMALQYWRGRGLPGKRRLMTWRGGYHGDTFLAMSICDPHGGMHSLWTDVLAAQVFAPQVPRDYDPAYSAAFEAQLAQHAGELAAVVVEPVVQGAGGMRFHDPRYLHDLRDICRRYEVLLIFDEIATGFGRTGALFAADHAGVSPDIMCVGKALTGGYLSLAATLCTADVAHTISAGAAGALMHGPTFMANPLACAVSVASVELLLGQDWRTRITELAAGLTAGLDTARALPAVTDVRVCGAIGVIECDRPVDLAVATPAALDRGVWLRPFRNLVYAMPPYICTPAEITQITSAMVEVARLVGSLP
# [14] = molecular target: T8, Aryl hydrocarbon receptor (Homo sapiens, UniProt P35869); details: Potency;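 also: confirmatory quantitative high-throughput screen measuring activation of the AhR signaling pathway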
# T8 sequence (P35869 whole entry): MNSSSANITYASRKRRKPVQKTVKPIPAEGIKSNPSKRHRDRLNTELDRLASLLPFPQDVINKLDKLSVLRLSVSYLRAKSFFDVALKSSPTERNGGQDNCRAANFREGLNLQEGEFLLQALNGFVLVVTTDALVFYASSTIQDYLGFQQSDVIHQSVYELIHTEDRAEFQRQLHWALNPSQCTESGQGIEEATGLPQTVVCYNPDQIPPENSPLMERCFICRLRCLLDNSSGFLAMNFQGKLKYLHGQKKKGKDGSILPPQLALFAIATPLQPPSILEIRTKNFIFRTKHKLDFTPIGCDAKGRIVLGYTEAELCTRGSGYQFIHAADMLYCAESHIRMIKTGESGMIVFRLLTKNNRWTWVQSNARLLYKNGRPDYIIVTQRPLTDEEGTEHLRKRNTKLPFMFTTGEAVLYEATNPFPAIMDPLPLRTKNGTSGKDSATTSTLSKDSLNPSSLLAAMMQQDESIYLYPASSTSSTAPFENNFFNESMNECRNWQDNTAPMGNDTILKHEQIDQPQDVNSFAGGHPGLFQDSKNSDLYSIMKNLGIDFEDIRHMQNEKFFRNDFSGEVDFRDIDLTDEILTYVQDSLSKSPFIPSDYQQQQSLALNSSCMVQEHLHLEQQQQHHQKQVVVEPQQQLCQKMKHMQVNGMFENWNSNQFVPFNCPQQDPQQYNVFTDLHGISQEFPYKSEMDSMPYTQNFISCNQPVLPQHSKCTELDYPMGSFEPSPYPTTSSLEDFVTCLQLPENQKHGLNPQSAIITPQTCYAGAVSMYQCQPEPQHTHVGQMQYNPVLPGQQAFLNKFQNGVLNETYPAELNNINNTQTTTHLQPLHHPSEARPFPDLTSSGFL
# Dual specificity protein phosphatase 3, sequence (P51452 whole entry): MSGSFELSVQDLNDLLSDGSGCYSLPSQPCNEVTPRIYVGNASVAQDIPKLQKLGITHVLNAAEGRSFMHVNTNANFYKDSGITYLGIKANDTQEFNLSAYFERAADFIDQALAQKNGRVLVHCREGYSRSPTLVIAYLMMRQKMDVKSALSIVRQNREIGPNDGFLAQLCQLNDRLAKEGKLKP
compound,measurement,setting,value
CN1CCC2(CC1)N=C(c1ccc(F)cc1)C(=S)N2,IC50,[1],2.69 µM (active)
same,IC50,[2],8.94 µM (active)
same,IC50,[3],41.6 µM (inactive)
C#CCN(C[C@@H]1[C@@H](OC(=O)NC2CC2)[C@@H](OC(=O)NC2CC2)Cn2c(=O)ccc(=O)n21)S(=O)(=O)c1ccc(C)cc1,IC50,Interleukin-8,6.06 µM (active)
C=CC1=C(C(=O)O)N2C(=O)C(NC(=O)Cc3ccccc3)C2SC1 (stereo not given),IC50,[1],7.17 µM (active)
same,IC50,[2],4.42 µM (active)
same,IC50,[3],52.9 µM (inactive)
same,EC50,Streptococcus,0.269 µM (active)
same,EC50,[4],0.169 µM (active)
same,IC50,[5],42.8 µM (inactive)
CCOc1ccccc1C(=O)NCCNC(=O)c1ccccc1OCC,IC50,Orexin receptor type 2 [6],2.78 µM (active)
same,IC50,[7],4.15 µM (active)
same,IC50,CHO-K1,> 66.2 µM (inactive)
same,IC50,[8],> 49.8 µM (inactive)
same,IC50,Orexin receptor type 2 [9],> 88.8 µM (inactive)
same,IC50,[10],3.27 µM (active)
c1ccc(CN2CCN(C3CCCSc4ccccc43)CC2)cc1 (stereo not given),IC50,Orexin receptor type 2 [6],> 50 µM (inactive)
same,IC50,[7],1.59 µM (active)
same,IC50,CHO-K1,> 66.2 µM (inactive)
same,IC50,[8],> 49.8 µM (inactive)
same,IC50,Orexin receptor type 2 [9],> 88.8 µM (inactive)
same,IC50,[10],23.9 µM (inactive)
O=C(Nc1nnc(C2=COCCO2)o1)c1ccc(Cl)cc1,AC50,[11],85.8 µM (active)
C=CCn1c(SCc2ccc(C(=O)Nc3nccs3)cc2)nnc1-c1ccc(C)c(Cl)c1,IC50,Orexin receptor type 2 [6],> 50 µM (inactive)
same,IC50,[7],0.919 µM (active)
same,CC50,[12],33 µM (active)
same,IC50,CHO-K1,> 66.2 µM (inactive)
same,IC50,[8],18.3 µM (inactive)
same,IC50,Orexin receptor type 2 [9],18 µM (inactive)
same,IC50,[10],4.95 µM (active)
COc1ccc(C(=O)Oc2cccc3cccnc23)cc1[N+](=O)[O-],AC50,[11],135 µM (active)
Cc1c(NC(=O)c2cc3ccccc3o2)cccc1-n1cnnn1,AC50,[13],6.18 µM (active)
CN1c2ccc(-c3cccc(F)c3)cc2[C@H]2[C@H](CCN2C(=O)c2ccc3c(c2)OCO3)[C@H]1CO,AC50,[13],0.075 µM (active)
CCNc1nc(NCC)nc(SC)n1,AC50,[14],0.447 µM (inconclusive)
CO[C@H]1CN(C)C(=O)c2ccc(NC(C)=O)cc2OC[C@@H](C)N(C(=O)C2CCCCC2)C[C@H]1C,AC50,[13],6.6 µM (active)
